2 compounds from US7285618B1, “Polypeptides having neutrophil stimulating activity” (Japan Tobacco Inc., priority 2000, dated 2007) can be followed below.

Read-outs that look alike come from different tables or passages of the source. Where no end group is shown, it is not given here.

The test system of data set [1] is differentiated HL60 cells. In kind it is cell-based, human. Particulars: for secretion of β-HA upon stimulation after PTX treatment: cells treated with 50 ng/ml PTX for 16 hours; for Percentage of maximum secretion activity (%/control): control = β-HA released upon 10 μM fMLP; for β-HA secretion from differentiated HL60 cells (%/total): total = β-HA released with 0.05% Triton X-100. The protocol: a. Cultivation of HL60 Cells and Induction to the Differentiated Neutrophil-Like Cells For cultivation, heat-inactivated FCS (final concentration; 10%), streptomycin (final concentration; 100 mg/l), penicillin G (final concentration of 10^5 units/l) and RPMI-1640 culture solution containing 10 mM Hepes (pH 7.4) were used. Cells were cultivated at a cell density of 2×10^5-1.5×10^6 cells/ml in a plastic flask (80 cm^2, 260 ml, Nunc) at 37° C. under stationary conditions with a 5% of CO2 concentration and a 100% of humidity. […] c. […] Measuring β-HA Enzyme Activity The amount of β-HA secreted into the reaction supernatant was determined by measuring the absorbance at 415 nm of p-nitrophenol that was generated by an enzymatic reaction involving p-nitrophenyl N-acetyl-β-D-glucosaminide as a substrate. To be specific, 90 μl of the reaction supernatant was transferred to a 96-well Immuno plate (Nunc) and 60 μl of a substrate solution (10 mM p-nitrophenyl N-acetyl-β-D-glucosaminide/40 mM citrate, 70 mM Na2HPO4, pH 4.5) was added to initiate an enzymatic reaction. Following a 1-hr reaction at 37° C., 100 μl of a reaction quencher (400 mM glycine, pH 10.7) was added to stop the reaction and the absorbance at 415 nm was measured. As a control, cells were treated with Triton X-100 at a final concentration of 0.05% and the amount of β-HA in the supernatant was measured. As another control, the amount of β-HA secreted from cells upon stimulation with fMLP at a final concentration of 10 μM was measured.

Data set [2] has as its system monocyte and lymphocyte mixed cells. Nature of the data set: β-HA secretion from monocyte and lymphocyte mixed cells. In kind it is cell-based, human.
For data set [3], the system named is differentiated HL60 cells. Nature of the data set: Intracellular Ca2+ concentration (fura-2), differentiated HL60 cells. In kind it is cell-based, human. Particulars: for increase of intracellular Ca2+ concentration in the absence of extracellular Ca2+: absence of Ca2+ (−) versus presence (+); for increase in intracellular Ca2+ concentration upon stimulation after PTX treatment: cells treated with 50 ng/ml PTX for 16 hours; for intracellular Ca2+ concentration: differentiated HL60 cells (+); for intracellular Ca2+ concentration with or without extracellular Ca2+: extracellular Ca2+ present or not. The protocol:
The differentiated HL60 cells or undifferentiated HL60 cells were washed twice with a Hepes-Na solution (140 mM NaCl, 4 mM KCl, 1 mM NaH2PO4, 1 mM MgCl2, 1.25 mM CaCl2, 5 mM Hepes, 11 mM glucose, 0.2% BSA, pH 7.4). Then, Ca^2+ sensitive fluorescence reagent, fura-2/AM, was added to the cell suspension (4 ml: final concentration, 4 μM). The reaction mixture was then shaken gently at room temperature for 60 minutes, shielded from light in order to incorporate fura-2 into the HL60 cells. Subsequently, the cells were washed twice with a Hepes-Na solution and a cell suspension was prepared at a final cell density of 1.0×10^6 cells/ml. One milliliter of the cell suspension was put into reaction cuvettes and stimulated with various samples under stirring at 30° C. Ratios of fluorescence intensity at 500 nm (F) for an excitation wavelength at 340 nm to that at 380 nm were measured with a fluorimeter (CAF-100, Japan Spectroscopic Co., Ltd.) and [Ca^2+]i was calculated following the formula: [Ca^2+]i(nM)=K×{(F−Fmin)/(Fmax−F)}×A/B, wherein
Fmax: a ratio of fluorescence intensity at 500 nm for an excitation wavelength at 340 nm to that at 380 nm after all cells were solubilized with 0.1% Triton X-100;
Fmin: a ratio of fluorescence intensity at 500-nm for an excitation wavelength at 340 nm to that at 380 nm after the whole calcium was chelated with 4 mM EGTA;
A: fluorescence intensity at 500-nm for an excitation wavelength at 380 nm, when all the calcium was chelated with EGTA;
B: fluorescence intensity at 500-nm for an excitation wavelength at 380 nm, when all cells were solubilized with Triton X-100;
K: 224 (nM) (the dissociation constant of fura-2).

Data set [4] relates to differentiated HL60 cells.
Method: (§1) The differentiated HL60 cells and human leukocyte cells were washed three times with ice-cooled 0.1% BSA containing Hepes buffered Hank's solution (HBHS; 10 mM Hepes, 136.9 mM NaCl, 5.4 mM KCl, 1.2 mM CaCl2, 0.44 mM KH2PO4, 0.49 mM MgCl2, 0.41 mM MgSO4, 0.34 mM Na2HPO4, 5.5 mM glucose, 4.2 mM NaHCO3, pH 7.4). A cell suspension was prepared for each cell type at 5.5×10^6 cells/ml. Cytochalasin B and DNase I were then added to each cell suspension at a final concentration of 5 μg/ml. Ninety μl of each cell suspension was then transferred to an ice-cooled tube (5.0×10^5 cells/tube) and incubated at 37° C. for 10 minute. To each tube, either one of the fractions of polypeptide (or extract) in solution (10 μl) was added and incubated at 37° C. for 10 minutes to stimulate the cells. Immediately after the treatment, 200 μl of ice-cooled reaction quenching buffer (25 mM Tris, 123 mM NaCl, 2.7 mM KCl, pH 7.4) was added to the cell suspensions to stop the stimulation. Thereafter, the tubes were spun down at 4° C. for 60 seconds to precipitate the cell pellets and the β-HA activity and the lactate dehydrogenase (LDH) activity in the supernatant were measured.
(§2) The amount of LDH secreted into the reaction mixture was determined by measuring the absorbance (340 nm) of NADH generated by reduction of that NAD involves dehydrogenation of lactate. Reaction was initiated by adding a 400 μl of a substrate-buffer solution (125 mM 2-amino-2-methyl-1-propanol, 125 mM lithium lactate, 6.25 mM NAD, pH 9.5) to a 100 μl of the reaction supernatant. Following a 1-hr incubation at 37° C., the mixture was quenched in ice water to stop the reaction and the absorbance at 340 nm was measured.
(§3) The LDH enzyme activity secreted in the reaction mixture was expressed as the percentage of the total enzyme activity in cells (%/total) which was the enzyme activity of LDH released upon disruption of the cells with 0.05% Triton X-100.
The target in a further data set is T1, fMLP receptor (Homo sapiens, UniProt P21462).
T1 construct: fMLP receptors are expressed on the surfaces of the cells as they differentiate into neutrophil-like cells; endogenous in cells; host or cells: HL60 cells differentiated with db-cAMP (whole cells)
T1 sequence (P21462 1-350): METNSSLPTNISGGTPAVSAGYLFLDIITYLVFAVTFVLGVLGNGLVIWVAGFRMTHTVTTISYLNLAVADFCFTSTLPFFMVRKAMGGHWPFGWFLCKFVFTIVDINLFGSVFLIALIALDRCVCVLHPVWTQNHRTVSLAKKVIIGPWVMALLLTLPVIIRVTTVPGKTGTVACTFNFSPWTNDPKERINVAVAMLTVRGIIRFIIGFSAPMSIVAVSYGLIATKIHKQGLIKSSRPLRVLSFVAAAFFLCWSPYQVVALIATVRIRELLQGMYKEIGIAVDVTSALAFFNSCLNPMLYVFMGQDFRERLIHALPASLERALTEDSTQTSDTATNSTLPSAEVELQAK
The experiment in a line: [3H]fMLP binding to the fMLP receptor on differentiated HL60 cells. The settings on record: [3H]fMLP 50 nM, 22° C., 60 minutes; COSP-1 up to 10 μM. The protocol:
The binding study of COSP-1 to the fMLP receptor was done using the differentiated HL60 cells. The differentiated HL60 cells were washed twice with HBHS. Then, the cells were suspended at 3.1×10^7 cells/ml and this suspension was transferred to tubes (2.5×10^6 cells/80 μl) and incubated at 22° C. for 10 minutes. Subsequently, various concentrations of COSP-1 or fMLP (10 μl) were added and incubated at 22° C. for 5 minutes. Thereafter, 10 μl of [^3H]fMLP (final concentration at 50 nM) was added and reaction was performed at 22° C. for 60 minutes. By adding 500 μl of ice-cooled PBS-BSA (10 mM phosphate, 120 mM NaCl, 0.5% BSA), the reaction was stopped. The treated cell suspension was then passed through a glass-fiber filter (Whatman GF/C) and the filter was washed three times with ice-cooled PBS-BSA (2 ml) to remove [^3H]fMLP not bound to the cells. The glass-fiber filter was dried and a scintillant was added to a solution for radioactivity measurement.
The measurements of binding of the fMLP to the fMLP receptors were expressed as the percentage (%/total) for a maximum binding which was shown as the radioactivity of [^3H]fMLP having specific binding to the receptors in the absence of an unlabelled ligand.

The test system of data set [5] is differentiated HL60 cells. The experiment in a line: LDH leakage from HL60 cells. In general terms: Release of lactate dehydrogenase indicates damage to the cell membrane.
Method: as §1, §2, §3

For `CSCC[C@H](NC=O)C(=O)N[C@@H](CC(C)C)C(=O)N[C@@H](Cc1ccccc1)C(=O)O` [fMLP, formyl methionyl-leucyl-phenylalanine, reference compound], in data set [1], the “secretion of β-HA upon stimulation after PTX treatment” value was “almost completely inhibited”, the “Percentage of maximum secretion activity (%/control)” value turned out to be 100 %/control and the “β-HA secretion from differentiated HL60 cells (%/total)” value came to 67.4 %/total. The “β-HA secretion from monocyte and lymphocyte mixed cells (%/total)” value in data set [2] is recorded as 21.8 ± 5.3 %/total. In data set [2] (stimulation with 10 μM), the “secretion of β-HA in the monocyte and lymphocyte mixed cells” value came to 21.8±5.3%. Also, in data set [3], the “increase of intracellular Ca2+ concentration in the absence of extracellular Ca2+” value is listed as “reduced”, the “increase in intracellular Ca2+ concentration upon stimulation after PTX treatment” value was “almost completely inhibited”, the “intracellular Ca2+ concentration” value is “increased” and the “intracellular Ca2+ concentration with or without extracellular Ca2+” value is “increased irrespective of whether extracellular Ca^2+ was present or not”. Moreover, the “LDH leakage from the HL60 cells” value in data set [4] is “neither of COSP-1 and fMLP caused LDH leakage”.

Turning to LSFLIPAGWVLSHLDHYKRSSAA-OH [COSP-1], the “promoted secretion of β-HA under Boc-MLF treatment” value in data set [1] (Boc-MLF treatment, data not shown) is on record as “significantly suppressed”. In addition, in data set [1], the “secretion of β-HA upon stimulation after PTX treatment” value is given as “almost completely inhibited”, the “Percentage of maximum secretion activity (%/control)” value was 93.6 ± 2.8 %/control and the “β-HA secretion from differentiated HL60 cells (%/total)” value is listed as 63.1 %/total. Moreover, in data set [3], the “increase of intracellular Ca2+ concentration in the absence of extracellular Ca2+” value is listed as “reduced”, the “increase in intracellular Ca2+ concentration upon stimulation after PTX treatment” value is listed as “almost completely inhibited”, the “intracellular Ca2+ concentration” value is “increased” and the “intracellular Ca2+ concentration with or without extracellular Ca2+” value was “increased irrespective of whether extracellular Ca^2+ was present or not”. Further, the “inhibition of the specific binding between [3H]fMLP and fMLP receptors” value on fMLP receptor is “not by COSP-1 even when its final concentration was reacted to 10 μM”. Moreover, the “LDH leakage from the HL60 cells” value in data set [5] (Example 6) was “neither of COSP-1 and fMLP caused LDH leakage”. Also, the “LDH leakage out of the cells” value in data set [5] (differentiated HL60 cells, Example 4) is “no LDH was found to leak out”.
